Measurements as given in patent publication US10913727B2, “Modulators of the integrated stress pathway” (Calico Life Sciences LLC, priority 2016, dated 2021).

System: HEK293T cells carrying the ATF4 luciferase reporter
Experiment: ATF4-Luc assay, in vitro model of Vanishing Cell White Matter Disease (VWMD)
Type: cell-based
Conditions: Homo sapiens, HEK-293T, 1 μg/mL tunicamycin, 7 hours, One Glo luminescence
Summary of the method: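 Stable HEK293T line with human ATF4 5′-UTR–firefly luciferase reporter treated with 1 μg/mL tunicamycin plus 200 nM compound for 7 h. Luminescence read; EC50 derived.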

Compound: O=C(COc1ccc(Cl)c(F)c1)NC12CC(NC(=O)c3cc(C4CC4)on3)(C1)C2 [Compound 256, N-{3-[2-(4-chloro-3-fluorophenoxy)acetamido]bicyclo[1.1.1]pentan-1-yl}-5-cyclopropyl-1,2-oxazole-3-carboxamide]
- EC50: 0.25 to 1 µM

Compound: O=C(COc1ccc(Cl)c(F)c1)NC12CCC(NC(=O)c3ccno3)(CC1)C(O)C2 (stereo not shown) [Compound 215, N-{4-[2-(4-chloro-3-fluorophenoxy)acetamido]-2-hydroxybicyclo[2.2.2]octan-1-yl}-1,2-oxazole-5-carboxamide]
- EC50: 0.05 to 0.25 µM

Compound: Cc1ccn2cc(C(=O)NC34CC(NC(=O)COc5ccc(Cl)c(F)c5)(C3)C4)nc2c1 [Compound 808, N-{3-[2-(4-chloro-3-fluorophenoxy)acetamido]bicyclo[1.1.1]pentan-1-yl}-7-methylimidazo[1,2-a]pyridine-2-carboxamide]
- EC50: > 2 µM

Compound: Cc1cc(C(=O)NC23CC(NC(=O)COc4ccc(Cl)c(F)c4)(C2)C3)ns1 [Compound 677, N-{3-[2-(4-chloro-3-fluorophenoxy)acetamido]bicyclo[1.1.1]pentan-1-yl}-5-methyl-1,2-thiazole-3-carboxamide]
- EC50: 0.25 to 1 µM

Compound: CCCc1cnc(C(=O)NC23CC(NC(=O)COc4ccc(Cl)c(F)c4)(C2)C3)cn1 [Compound 334, N-{3-[2-(4-chloro-3-fluorophenoxy)acetamido]bicyclo[1.1.1]pentan-1-yl}-5-propylpyrazine-2-carboxamide]
- EC50: < 0.05 µM

Compound: CCc1cc(C(=O)NC23CCC(NC(=O)COc4ccc(Cl)c(F)c4)(CC2)[C@@H](O)C3)no1 [Compound 668, N-{(3S)-4-[2-(4-chloro-3-fluorophenoxy)acetamido]-3-hydroxybicyclo[2.2.2]octan-1-yl}-5-ethyl-1,2-oxazole-3-carboxamide]
- EC50: < 0.05 µM

Compound: Cc1ccc(C(=O)NC23CC(NC(=O)COc4ccc(Cl)c(F)c4)(C2)C3)c(C)n1 [Compound 684, N-{3-[2-(4-chloro-3-fluorophenoxy)acetamido]bicyclo[1.1.1]pentan-1-yl}-2,6-dimethylpyridine-3-carboxamide]
- EC50: 1 to 2 µM

Compound: Cn1nnc2cc(C(=O)NC34CC(NC(=O)COc5ccc(Cl)c(F)c5)(C3)C4)ccc21 [Compound 785, N-{3-[2-(4-chloro-3-fluorophenoxy)acetamido]bicyclo[1.1.1]pentan-1-yl}-1-methyl-1H-benzotriazole-5-carboxamide]
- EC50: > 2 µM

Compound: O=C1COc2cc(C(=O)NC34CC(NC(=O)COc5ccc(Cl)c(F)c5)(C3)C4)ccc2N1 [Compound 794, N-{3-[2-(4-chloro-3-fluorophenoxy)acetamido]bicyclo[1.1.1]pentan-1-yl}-3-oxo-3,4-dihydro-2H-1,4-benzoxazine-7-carboxamide]
- EC50: > 2 µM

Compound: CCc1noc(C(=O)NC23CC(NC(=O)COc4ccc(Cl)c(F)c4)(C2)C3)n1 [Compound 479, N-{3-[2-(4-chloro-3-fluorophenoxy)acetamido]bicyclo[1.1.1]pentan-1-yl}-3-ethyl-1,2,4-oxadiazole-5-carboxamide]
- EC50: 0.05 to 0.25 µM

Compound: CC(=O)Nc1sccc1C(=O)NC12CC(NC(=O)COc3ccc(Cl)c(F)c3)(C1)C2 [Compound 876, 2-acetamido-N-{3-[2-(4-chloro-3-fluorophenoxy)acetamido]bicyclo[1.1.1]pentan-1-yl}thiophene-3-carboxamide]
- EC50: 0.25 to 1 µM

Compound: COCc1nc(C(=O)NC23CCC(NC(=O)COc4ccc(Cl)c(F)c4)(CC2)[C@@H](O)C3)cs1 [Compound 619, N-{(3S)-4-[2-(4-chloro-3-fluorophenoxy)acetamido]-3-hydroxybicyclo[2.2.2]octan-1-yl}-2-(methoxymethyl)-1,3-thiazole-4-carboxamide]
- EC50: < 0.05 µM

Compound: CC(C)(C)[Si](C)(C)OCCOc1ccc(C(=O)NC23CC(NC(=O)COc4ccc(Cl)c(F)c4)(C2)C3)cn1 [Compound 157, 6-(2-{[tert-butyl(dimethyl)silyl]oxy}ethoxy)-N-{3-[2-(4-chloro-3-fluorophenoxy)acetamido]bicyclo[1.1.1]pentan-1-yl}pyridine-3-carboxamide]
- EC50: > 2 µM
